The source of these data is ChEMBL document CHEMBL1136058, “4-Anilino-3-cyanobenzo[g]quinolines as kinase inhibitors” (Bioorg Med Chem Lett, 2002).

Broadly, the IC50 is the point on the concentration scale where inhibition reaches its midpoint. A high value points to weaker potency. Usually inhibition stands for how much of the control response was suppressed. High values mean a strong effect, low ones a weak effect.

The target in assay [1] is Dual specificity mitogen-activated protein kinase kinase 1 (Homo sapiens, UniProt Q02750). Nature of the assay: Inhibition of Dual specificity mitogen-activated protein kinase kinase (MEK-1).
Chain of Dual specificity mitogen-activated protein kinase kinase 1 (Q02750 whole entry): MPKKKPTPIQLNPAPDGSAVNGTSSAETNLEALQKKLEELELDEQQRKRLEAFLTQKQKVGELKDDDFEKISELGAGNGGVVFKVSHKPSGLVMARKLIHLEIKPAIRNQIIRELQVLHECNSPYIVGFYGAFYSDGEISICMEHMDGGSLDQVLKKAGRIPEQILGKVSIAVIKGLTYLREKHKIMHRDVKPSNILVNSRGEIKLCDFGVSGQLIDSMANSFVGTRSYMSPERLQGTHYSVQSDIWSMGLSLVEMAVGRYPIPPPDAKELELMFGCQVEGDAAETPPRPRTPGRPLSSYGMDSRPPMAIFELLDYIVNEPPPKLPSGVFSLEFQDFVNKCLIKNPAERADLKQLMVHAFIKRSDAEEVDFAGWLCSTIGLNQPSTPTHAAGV
Assay [2] relates to LoVo. Description: Inhibition of LOVO cell proliferation. Particulars: Homo sapiens.
Assay [3] has as its target Epidermal growth factor receptor (Homo sapiens, UniProt P00533). Description: Inhibition of epidermal growth factor receptor (EGFR).
Assay [4] concerns SW-620. Nature of the assay: Inhibition of SW620 cell proliferation. To be noted: Homo sapiens.
The target in assay [5] is T1, Proto-oncogene tyrosine-protein kinase Src (Homo sapiens, UniProt P12931). Nature of the assay: Inhibition of Src protein tyrosine kinase at 0.1 uM.
T1 sequence (P12931 2-536 limits assumed): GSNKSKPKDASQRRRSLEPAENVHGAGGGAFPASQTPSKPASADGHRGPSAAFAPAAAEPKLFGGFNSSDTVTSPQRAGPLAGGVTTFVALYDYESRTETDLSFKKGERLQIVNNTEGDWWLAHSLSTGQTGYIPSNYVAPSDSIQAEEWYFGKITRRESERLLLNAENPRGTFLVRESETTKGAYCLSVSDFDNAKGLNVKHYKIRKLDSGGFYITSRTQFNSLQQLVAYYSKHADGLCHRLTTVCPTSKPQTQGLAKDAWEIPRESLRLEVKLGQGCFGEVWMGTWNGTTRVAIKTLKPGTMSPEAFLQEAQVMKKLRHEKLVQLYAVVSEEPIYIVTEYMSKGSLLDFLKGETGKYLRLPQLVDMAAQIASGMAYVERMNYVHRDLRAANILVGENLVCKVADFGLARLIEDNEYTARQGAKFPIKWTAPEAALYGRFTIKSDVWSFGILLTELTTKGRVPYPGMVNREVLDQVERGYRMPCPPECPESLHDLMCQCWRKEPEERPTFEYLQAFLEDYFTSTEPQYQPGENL
Assay [6] has as its target T1, Proto-oncogene tyrosine-protein kinase Src. Nature of the assay: Inhibition of Src protein tyrosine kinase at 0.01 uM.
For assay [7] the target is unchanged.

Chain of Epidermal growth factor receptor (P00533 whole entry): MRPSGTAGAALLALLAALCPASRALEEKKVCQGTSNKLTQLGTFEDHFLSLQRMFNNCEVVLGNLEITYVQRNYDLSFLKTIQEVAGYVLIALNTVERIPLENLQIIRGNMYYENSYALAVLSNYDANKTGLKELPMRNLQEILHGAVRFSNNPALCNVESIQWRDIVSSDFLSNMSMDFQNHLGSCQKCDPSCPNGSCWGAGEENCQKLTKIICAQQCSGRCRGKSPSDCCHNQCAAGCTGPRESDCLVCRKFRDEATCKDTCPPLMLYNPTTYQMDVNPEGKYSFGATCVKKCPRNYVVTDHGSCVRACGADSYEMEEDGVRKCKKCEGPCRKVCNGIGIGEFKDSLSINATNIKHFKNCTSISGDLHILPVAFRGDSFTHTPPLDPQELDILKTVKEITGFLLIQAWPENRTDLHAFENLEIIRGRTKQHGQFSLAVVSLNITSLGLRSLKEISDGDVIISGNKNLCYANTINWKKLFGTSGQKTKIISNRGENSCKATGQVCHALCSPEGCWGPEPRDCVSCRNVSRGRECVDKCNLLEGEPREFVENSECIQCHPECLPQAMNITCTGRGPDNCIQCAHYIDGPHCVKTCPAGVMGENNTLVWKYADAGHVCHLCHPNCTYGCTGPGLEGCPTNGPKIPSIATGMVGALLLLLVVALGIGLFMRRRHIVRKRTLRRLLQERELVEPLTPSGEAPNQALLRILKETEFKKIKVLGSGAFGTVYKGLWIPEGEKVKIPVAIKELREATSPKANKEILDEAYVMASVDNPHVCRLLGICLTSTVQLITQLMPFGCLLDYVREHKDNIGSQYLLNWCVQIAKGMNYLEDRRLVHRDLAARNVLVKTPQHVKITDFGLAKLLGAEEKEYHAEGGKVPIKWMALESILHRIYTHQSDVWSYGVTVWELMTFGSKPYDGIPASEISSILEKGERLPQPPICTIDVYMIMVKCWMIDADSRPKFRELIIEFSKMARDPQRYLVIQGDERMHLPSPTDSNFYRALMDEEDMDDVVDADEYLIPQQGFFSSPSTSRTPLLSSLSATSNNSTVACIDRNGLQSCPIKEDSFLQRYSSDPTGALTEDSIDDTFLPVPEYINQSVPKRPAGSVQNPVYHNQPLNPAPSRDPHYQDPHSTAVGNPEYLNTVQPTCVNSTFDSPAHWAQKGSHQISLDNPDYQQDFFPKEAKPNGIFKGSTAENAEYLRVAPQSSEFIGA

Turning to `COc1cc2cc3ncc(C#N)c(Nc4ccc(Oc5ccccc5)cc4)c3cc2cc1OC`, the concentration for half-maximal inhibition (IC50) in assay [1] was 10 nM; in assay [2] it was 670 nM. Regarding `COc1cc2cc3ncc(C#N)c(Nc4ccc(F)c(Cl)c4)c3cc2cc1OC`, the IC50 in assay [3] was 18000 nM; in assay [4] it was 1990 nM. Regarding `COc1ccc2cc3ncc(C#N)c(Nc4ccc(Cl)cc4Cl)c3cc2c1`, in assay [5], the inhibition worked out at 30%. As for `N#Cc1cnc2cc3cc(O)c(O)cc3cc2c1Nc1ccc(Cl)cc1Cl`, the inhibition in assay [6] turned out to be 10%. In assay [5], `COc1ccc2cc3c(Nc4ccc(Cl)cc4Cl)c(C#N)cnc3cc2c1` registered an inhibition of 30%.

As to `COc1cc2ncc(C#N)c(Nc3ccc(Cl)cc3Cl)c2cc1OC`, the concentration for half-maximal inhibition (IC50) in assay [7] was 38 nM.
